# Measured values published in patent US11578012B2, “Use of N-functionalized alkoxy pyrazole compounds as nitrification inhibitors” (BASF SE, priority 2018, dated 2023).
# Test: volatility (statement on prior-art compound)
# Format: physicochemical
# Details: qualitative statement, no method given
structure (smiles),measurement,value
CCOc1cc(C)[nH]n1 [3-ethoxy-5-methylpyrazole],volatility,high volatility
